Experimental data taken from patent publication US20070072840A1, “POLYMORPHIC FORMS OF QUETIAPINE” (priority 2005, published 2007).
Counter-ions that a name gives are not always drawn.

How the values were obtained:
[1] = as compared to any other crystalline form
[2] = result in words, conditions not given
[3] = result in words, conditions not given; remark: listed apart in the source

solubility in water [1]: more soluble in water | hygroscopicity [2]: non-hygroscopic | stability [3]: stable
Compound: OCCOCCN1CCN(C2=Nc3ccccc3Sc3ccccc32)CC1 [amorphous quetiapine hydrochloride, Quetiapine Hydrochloride]
